Reference: US20140155415A1, “BENZ[…] BENZODIOXINE COMPOUNDS THAT INTERACT WITH G[…] FOR THE TREATMENT OF DIABETES” (priority 2011, published 2014)

Key:
[1] = biological target: T1, GK-GKRP (interaction between glucokinase and glucokinase regulatory protein) (Homo sapiens, UniProt Q14397); experiment: GK-GKRP Binding Assay (Binding), AlphaScreen; conditions: avi-tagged GKRP, GK-fluorescein, AlphaScreen beads, 1 μM sorbitol-6-phosphate; read-out: GK-GKRP IC50 (Binding)
T1 construct: made in house; host or cells: GKRP: baculovirus system
T1 sequence (Q14397 1-625): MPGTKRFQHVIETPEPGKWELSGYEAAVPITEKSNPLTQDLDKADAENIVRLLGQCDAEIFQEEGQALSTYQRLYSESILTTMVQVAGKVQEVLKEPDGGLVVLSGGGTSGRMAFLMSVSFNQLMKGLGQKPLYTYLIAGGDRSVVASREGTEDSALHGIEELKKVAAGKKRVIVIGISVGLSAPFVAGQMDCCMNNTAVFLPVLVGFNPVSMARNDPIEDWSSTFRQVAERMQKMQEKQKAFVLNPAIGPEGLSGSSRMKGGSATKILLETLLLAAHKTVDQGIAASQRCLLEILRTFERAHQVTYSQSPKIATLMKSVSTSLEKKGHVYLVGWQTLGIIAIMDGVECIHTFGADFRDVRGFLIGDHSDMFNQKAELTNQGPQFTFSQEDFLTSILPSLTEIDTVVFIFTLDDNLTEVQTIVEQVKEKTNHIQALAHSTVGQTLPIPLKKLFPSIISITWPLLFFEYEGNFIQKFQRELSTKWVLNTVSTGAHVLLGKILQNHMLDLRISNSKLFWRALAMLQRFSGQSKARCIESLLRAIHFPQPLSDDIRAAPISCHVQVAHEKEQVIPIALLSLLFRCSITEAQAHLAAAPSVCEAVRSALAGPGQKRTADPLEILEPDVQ
Method in brief: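 Biotinylated, C-terminally avi-tagged human GKRP was preincubated 20 min at room temperature with compound, then fluorescein-labelled human hepatic GK was added (6 nM in the added buffer). The mix was incubated 2 h at room temperature in the dark before AlphaScreen reading. Buffer was 20 mM Tris pH 7.5, 0.05% BSA, 1 mM DTT, 1 μM sorbitol-6-phosphate.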

[2] = biological target: T2, GK-GKRP (glucokinase / glucokinase regulatory protein) (Homo sapiens, UniProt Q14397); experiment: GKRP LC MS/MS Biochemical Assay (LCMS/MS); conditions: formation of 13C-glucose-6-phosphate from 13C-glucose by LC MS/MS, human His-hepatic GK, fructose-6-phosphate
T2 sequence (Q14397 1-625): T1 sequence (Q14397 1-625)
Method in brief: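 Human His-tagged hepatic GK (30 nM working stock, 5×) with GKRP in 50 mM Tris pH 7.5, 4 mM MgCl2, 6% DMSO; compound preincubated 30 min, then GK added for 30 min at room temperature. Acetonitrile-stopped; 13C-glucose-6-phosphate formed from 13C-glucose quantified by LC MS/MS.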

SMILES | IC50 [1] [nM] | EC50 [2] [nM]
O=S(=O)(N[C@H](c1cc2ccccc2o1)c1ccccc1Cl)c1ccc2c(c1)OCCCO2 (single isomer, unassigned) [Example 20 Peak #1] | 5700 | > 20000
O=S(=O)(N[C@H](c1cc2ccccc2o1)c1ccccc1I)c1ccc2c(c1)OCCCO2 (single isomer, unassigned) [Example 21 Peak #1] | > 33000 | > 20000
O=S(=O)(N[C@H](c1cc2ccccc2o1)c1ccccc1Br)c1ccc2c(c1)OCCCO2 (single isomer, unassigned) [Example 22 Peak #1] | 4500 | > 20000
O=S(=O)(N[C@@H](c1cc2ccccc2o1)c1ccccc1Br)c1ccc2c(c1)OCCCO2 (single isomer, unassigned) [Example 22 Peak #2] | 83 | 26
O=S(=O)(N[C@@H](c1ccccn1)c1cc2ccccc2o1)c1ccc2c(c1)OCCCO2 (single isomer, unassigned) [Example 25 Peak #1] | 3800 | 6000
O=S(=O)(N[C@H](c1ccccn1)c1cc2ccccc2o1)c1ccc2c(c1)OCCCO2 (single isomer, unassigned) [Example 25 Peak #2] | 210 | 290
Cc1cccnc1[C@@H](NS(=O)(=O)c1ccc2c(c1)OCCCO2)c1cc2ccccc2o1 (single isomer, unassigned) [Example 26 Peak #2] | 120 | 85
Cc1ccccc1[C@H](NS(=O)(=O)c1ccc2c(c1)OCCCO2)c1cc2ccccc2s1 (single isomer, unassigned) [Example 36 Peak #1] | 4000 | > 20000
Cc1ccccc1[C@@H](NS(=O)(=O)c1ccc2c(c1)OCCCO2)c1cc2ccccc2s1 (single isomer, unassigned) [Example 36 Peak #2] | 240 | 62
CCc1ccccc1[C@H](NS(=O)(=O)c1ccc2c(c1)OCCCO2)c1cc2ccccc2s1 (single isomer, unassigned) [Example 37 Peak #1] | 1300 | > 20000
CCc1ccccc1[C@@H](NS(=O)(=O)c1ccc2c(c1)OCCCO2)c1cc2ccccc2s1 (single isomer, unassigned) [Example 37 Peak #2] | 130 | 38
COc1ccccc1[C@H](NS(=O)(=O)c1ccc2c(c1)OCCCO2)c1cc2ccccc2s1 (single isomer, unassigned) [Example 40 Peak #1] | 360 | 130
CSc1ccccc1[C@H](NS(=O)(=O)c1ccc2c(c1)OCCCO2)c1cc2ccccc2s1 (single isomer, unassigned) [Example 41 Peak #1] | 140 | 40
O=S(=O)(N[C@@H](c1ccccc1)c1cc2ccccc2s1)c1ccc2c(c1)OCCCO2 (single isomer, unassigned) [Example 57 Peak #1] | 3000 | 700
O=S(=O)(N[C@H](c1ccccc1)c1cc2ccccc2s1)c1ccc2c(c1)OCCCO2 (single isomer, unassigned) [Example 57 Peak #2] | 1900 | 87
CSc1ccccc1[C@H](NS(=O)(=O)c1ccc2c(c1)OCCCO2)c1cc2ccncc2s1 (single isomer, unassigned) [Example 64 Peak #1] | 430 | 180
C[C@@](O)(c1ccnc(-c2cccc3cc([C@@H](NS(=O)(=O)c4ccc5c(c4)OCCCO5)c4ccccc4)sc23)c1)C(F)(F)F (single isomer, unassigned) [Example 70 Peak #3] | 330 | 170
C[C@](O)(c1ccnc(-c2cccc3cc([C@@H](NS(=O)(=O)c4ccc5c(c4)OCCCO5)c4ccccc4)sc23)c1)C(F)(F)F (single isomer, unassigned) [Example 70 Peak #4] | 110 | 74
O=S(=O)(N[C@H](c1ccccc1)c1cc2cccc(-c3ccccn3)c2s1)c1ccc2c(c1)OCCCO2 (single isomer, unassigned) [Example 71 Peak #2] | 350 | 120

Now those with a lower IC50 [1], led by results:

IC50 [1] [nM] | EC50 [2] [nM] | SMILES
78 | 30 | O=S(=O)(N[C@@H](c1cc2ccccc2o1)c1ccccc1Cl)c1ccc2c(c1)OCCCO2 (single isomer, unassigned) [Example 20 Peak #2]
48 | 24 | COc1ccccc1[C@@H](NS(=O)(=O)c1ccc2c(c1)OCCCO2)c1nc2cccnc2s1 (single isomer, unassigned) [Example 67 Peak #2]
46 | 23 | CSc1ccccc1[C@@H](NS(=O)(=O)c1ccc2c(c1)OCCCO2)c1cc2ccccc2o1 (single isomer, unassigned) [Example 19 Peak #2]
40 | 42 | O=S(=O)(N[C@@H](c1cc2ccccc2o1)c1ccccc1I)c1ccc2c(c1)OCCCO2 (single isomer, unassigned) [Example 21 Peak #2]
28 | 26 | COc1ccccc1[C@@H](NS(=O)(=O)c1ccc2c(c1)OCCCO2)c1cc2ccccc2s1 (single isomer, unassigned) [Example 40 Peak #2]
20 | 29 | O=S(=O)(N[C@@H](c1nc2cccnc2s1)c1ccccc1Cl)c1ccc2c(c1)OCCCO2 (single isomer, unassigned) [Example 68 Peak #2]
8 | 13 | CSc1ccccc1[C@@H](NS(=O)(=O)c1ccc2c(c1)OCCCO2)c1cc2ccccc2s1 (single isomer, unassigned) [Example 41 Peak #2]
7 | 15 | CSc1ccccc1[C@@H](NS(=O)(=O)c1ccc2c(c1)OCCCO2)c1nc2cccnc2s1 (single isomer, unassigned) [Example 65 Peak #2]
7 | 17 | C[C@@](O)(c1ccnc(-c2cccc3cc([C@H](NS(=O)(=O)c4ccc5c(c4)OCCCO5)c4ccccc4)sc23)c1)C(F)(F)F (single isomer, unassigned) [Example 70 Peak #1]
6 | 22 | C[C@](O)(c1ccnc(-c2cccc3cc([C@H](NS(=O)(=O)c4ccc5c(c4)OCCCO5)c4ccccc4)sc23)c1)C(F)(F)F (single isomer, unassigned) [Example 70 Peak #2]
1 | 10 | CSc1ccccc1[C@@H](NS(=O)(=O)c1ccc2c(c1)OCCCO2)c1cc2ccncc2s1 (single isomer, unassigned) [Example 64 Peak #2]
